# Experimental data as given in ChEMBL document CHEMBL3875147 (Eur J Med Chem, 2016).
# Assays:
# Plesiomonas shigelloides [1] = test: Antibacterial activity against Plesiomonas shigelloides ATCC 14029 incubated for 18 to 24 hrs by micro-dilution method; format: functional
# Salmonella typhimurium = test: Antibacterial activity against clinical isolate of Salmonella typhimurium incubated for 18 to 24 hrs by micro-dilution method; format: functional, Salmonella enterica subsp. enterica serovar Typhimurium; conditions: Salmonella enterica
# [2] = Antibacterial activity against Aeromonas hydrophila ATCC 7966 incubated for 18 to 24 hrs by micro-dilution method; format: functional, Aeromonas hydrophila subsp. hydrophila ATCC 7966
# [3] = Hemolytic activity in human RBC at 100 uM measured after 1 hr by UV-vis absorbance method relative to control; format: ADME, cell-based, Erythrocyte; conditions: red blood cells (RBC), read-out: Activity
# Staphylococcus aureus [4] = test: Antibacterial activity against Staphylococcus aureus ATCC 25923 incubated for 18 to 24 hrs by micro-dilution method; format: functional
# [5] = tested on: Sphingomonas paucimobilis; test: Antibacterial activity against Sphingomonas paucimobilis MTCC 6362 incubated for 18 to 24 hrs by micro-dilution method; format: functional
# Escherichia coli [6] = test: Antibacterial activity against Escherichia coli ATCC 25922 incubated for 18 to 24 hrs by micro-dilution method; format: functional
# Pseudomonas aeruginosa [7] = test: Antibacterial activity against Pseudomonas aeruginosa ATCC 27853 incubated for 18 to 24 hrs by micro-dilution method; format: functional
# Enterococcus faecalis = test: Antibacterial activity against clinical isolate of Enterococcus faecalis incubated for 18 to 24 hrs by micro-dilution method; format: functional
# [8] = tested on: Staphylococcus epidermidis; test: Antibacterial activity against Staphylococcus epidermidis ATCC 35984 incubated for 18 to 24 hrs by micro-dilution method; format: functional; conditions: RP62A
# Pseudomonas aeruginosa [9] = test: Antibacterial activity against clinical isolate of Pseudomonas aeruginosa incubated for 18 to 24 hrs by micro-dilution method; format: functional
# Salmonella typhi = test: Antibacterial activity against clinical isolate of Salmonella typhi incubated for 18 to 24 hrs by micro-dilution method; format: functional, Salmonella enterica subsp. enterica serovar Typhi; conditions: Salmonella enterica
# Plesiomonas shigelloides [10] = test: Potency index, ratio of MIC for ciprofloxacin to MIC for test compound for antibacterial activity against Plesiomonas shigelloides ATCC 14029; format: functional
# Escherichia coli [11] = test: Potency index, ratio of MIC for ciprofloxacin to MIC for test compound for antibacterial activity against Escherichia coli ATCC 25922; format: functional
# Staphylococcus aureus [12] = test: Potency index, ratio of MIC for ciprofloxacin to MIC for test compound for antibacterial activity against Staphylococcus aureus ATCC 25923; format: functional
# [13] = tested on: Staphylococcus epidermidis; test: Potency index, ratio of MIC for ciprofloxacin to MIC for test compound for antibacterial activity against Staphylococcus epidermidis ATCC 35984; format: functional, RP62A
Compound,MIC (Plesiomonas shigelloides [1]) [µM],MIC (Salmonella typhimurium) [µM],MIC [2] [µM],"hemolysis at 1 h, 100 µM [3] [%]",MIC (Staphylococcus aureus [4]) [µM],MIC [5] [µM],MIC (Escherichia coli [6]) [µM],MIC (Pseudomonas aeruginosa [7]) [µM],MIC (Enterococcus faecalis) [µM],MIC [8] [µM],MIC (Pseudomonas aeruginosa [9]) [µM],MIC (Salmonella typhi) [µM],Ratio (Plesiomonas shigelloides [10]),Ratio (Escherichia coli [11]),Ratio (Staphylococcus aureus [12]),Ratio [13]
O=C(OCc1cn(-c2ccc(F)cc2Cl)nn1)c1cn(C2CC2)c2cc(N3CCN(Cc4cn(-c5ccc(F)cc5Cl)nn4)CC3)c(F)cc2c1=O,33.3,33.3,66.6,29.8,2.08,33.3,16.6,16.6,16.6,4.16,16.6,–,–,–,–,–
O=C(OCc1cn(-c2ccc(F)c(Cl)c2)nn1)c1cn(C2CC2)c2cc(N3CCN(Cc4cn(-c5ccc(F)c(Cl)c5)nn4)CC3)c(F)cc2c1=O,4.16,16.6,33.3,5.36,8.33,16.6,8.33,16.6,16.6,8.33,16.6,–,–,–,–,–
O=C(O)c1cn(C2CC2)c2cc(N3CCNCC3)c(F)cc2c1=O [CIPROFLOXACIN],9.43,–,–,5.23,–,–,–,–,–,9.43,–,–,–,–,–,–
CCc1ccc(-n2cc(COC(=O)c3cn(C4CC4)c4cc(N5CCN(Cc6cn(-c7ccc(CC)cc7)nn6)CC5)c(F)cc4c3=O)nn2)cc1,4.45,8.91,> 142,6.81,142,> 142,> 142,> 142,142,71.2,> 142,142,–,–,–,–
O=C(OCc1cn(-c2ccc(F)cc2F)nn1)c1cn(C2CC2)c2cc(N3CCN(Cc4cn(-c5ccc(F)cc5F)nn4)CC3)c(F)cc2c1=O,69.7,34.8,69.7,9.5,4.35,34.8,8.71,8.71,17.4,8.71,17.4,4.35,–,–,–,–
Cc1ccc(-n2cc(COC(=O)c3cn(C4CC4)c4cc(N5CCN(Cc6cn(-c7ccc(C)cc7Cl)nn6)CC5)c(F)cc4c3=O)nn2)c(Cl)c1,33.7,67.3,67.3,5.85,4.21,67.3,67.3,16.8,33.7,8.42,16.8,> 135,–,–,–,–
Cc1cc(C)cc(-n2cc(COC(=O)c3cn(C4CC4)c4cc(N5CCN(Cc6cn(-c7cc(C)cc(C)c7)nn6)CC5)c(F)cc4c3=O)nn2)c1,8.91,> 142,> 142,8.79,71.2,> 142,142,> 142,> 142,142,> 142,> 142,–,–,–,–
O=C(OCc1cn(-c2cccc(Cl)c2Cl)nn1)c1cn(C2CC2)c2cc(N3CCN(Cc4cn(-c5cccc(Cl)c5Cl)nn4)CC3)c(F)cc2c1=O,7.98,15.9,31.9,6.58,3.99,15.9,7.98,7.98,15.9,3.99,15.9,31.9,–,–,–,–
O=C(OCc1cn(-c2ccc(Cl)cc2Cl)nn1)c1cn(C2CC2)c2cc(N3CCN(Cc4cn(-c5ccc(Cl)cc5Cl)nn4)CC3)c(F)cc2c1=O,7.98,15.9,7.98,18.2,3.99,15.9,> 128,15.9,15.9,3.99,7.98,7.98,–,–,–,–
O=C(OCc1cn(-c2cccc(Cl)c2)nn1)c1cn(C2CC2)c2cc(N3CCN(Cc4cn(-c5cccc(Cl)c5)nn4)CC3)c(F)cc2c1=O,1.09,17.5,35,24.2,1.09,17.5,1.09,17.5,8.75,1.09,35,140,8 - 17,8 - 17,8 - 17,8 - 17
